Laboratory results as given in patent publication US20260297085A1, “1 H-PYRROLO[2,3-B]PYRIDIN-4-YL]-2-OXOPYRROLIDINE-3-CARBONITRILE DERIVATIVES AS TYROSINE KINASE 2 (TYK2) INHIBITORS FOR THE TREATMENT OF INFLAMMATORY DISEASES” (BIOGEN MA INC., priority 2023, published 2026).
Counter-ions that a name gives are not always drawn.

Tests used:
[1] = target: T1, human TYK2 kinase domain (JH1) (Homo sapiens, UniProt P29597); experiment: JH1 biochemical assay for TYK2 (ADP-Glo kinase assay, recombinant JH1 catalytic domain, JAK3-974 peptide, 10 μM ATP)
T1 construct: recombinantly generated catalytic kinase (also known as JH1) domain of human JAK1, JAK2, JAK3 and TYK2
T1 sequence (P29597 897-1176 limits assumed): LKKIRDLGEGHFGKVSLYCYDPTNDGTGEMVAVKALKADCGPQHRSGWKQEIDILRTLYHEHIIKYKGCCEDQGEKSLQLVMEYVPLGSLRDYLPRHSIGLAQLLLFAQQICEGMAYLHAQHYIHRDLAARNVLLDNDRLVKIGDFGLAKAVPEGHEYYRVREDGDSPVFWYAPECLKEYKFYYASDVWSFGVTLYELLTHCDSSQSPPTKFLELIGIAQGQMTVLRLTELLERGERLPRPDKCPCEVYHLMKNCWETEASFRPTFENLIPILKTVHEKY
Summary of the method: (§1)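 Kinase 4 nM JAK1 / 0.2 nM JAK2 / 0.3 nM JAK3 / 2 nM TYK2; 50 μM peptide; 100 min. Unused ATP depleted, ADP→ATP, luciferase luminescence. 11-pt 3-fold series from 10 or 1 μM; normalized, 4PL fit → IC50.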

[2] = target: T2, human JAK1 kinase domain (JH1) (Homo sapiens, UniProt P23458); experiment: JH1 biochemical assay for JAK1 (ADP-Glo kinase assay, recombinant JH1 catalytic domain, JAK3-342 peptide, 35 μM ATP)
T2 construct: recombinantly generated catalytic kinase (also known as JH1) domain of human JAK1, JAK2, JAK3 and TYK2
T2 sequence (P23458 875-1153 limits assumed): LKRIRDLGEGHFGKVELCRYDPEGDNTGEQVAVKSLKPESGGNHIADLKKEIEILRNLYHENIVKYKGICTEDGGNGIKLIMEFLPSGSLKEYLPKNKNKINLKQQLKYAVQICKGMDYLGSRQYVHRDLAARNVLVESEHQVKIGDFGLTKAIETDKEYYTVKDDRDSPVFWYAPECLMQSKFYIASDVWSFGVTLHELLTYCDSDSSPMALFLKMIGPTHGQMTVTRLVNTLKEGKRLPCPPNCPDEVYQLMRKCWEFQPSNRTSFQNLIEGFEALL
Summary of the method: as §1

[3] = target: T3, human JAK2 kinase domain (JH1) (Homo sapiens, UniProt O60674); experiment: JH1 biochemical assay for JAK2 (ADP-Glo kinase assay, recombinant JH1 catalytic domain, JAK3-974 peptide, 15 μM ATP)
T3 construct: recombinantly generated catalytic kinase (also known as JH1) domain of human JAK1, JAK2, JAK3 and TYK2
T3 sequence (O60674 849-1124 limits assumed): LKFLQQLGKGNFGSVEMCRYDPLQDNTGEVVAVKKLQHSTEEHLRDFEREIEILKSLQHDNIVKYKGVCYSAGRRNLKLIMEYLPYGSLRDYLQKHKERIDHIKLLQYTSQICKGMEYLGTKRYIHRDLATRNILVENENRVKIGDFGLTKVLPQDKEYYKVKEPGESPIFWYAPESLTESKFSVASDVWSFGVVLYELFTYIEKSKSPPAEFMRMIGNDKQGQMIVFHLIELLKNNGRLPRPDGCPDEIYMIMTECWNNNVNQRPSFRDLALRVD
Summary of the method: as §1

[4] = target: T4, human JAK3 kinase domain (JH1) (Homo sapiens, UniProt P52333); experiment: JH1 biochemical assay for JAK3 (ADP-Glo kinase assay, recombinant JH1 catalytic domain, JAK3-974 peptide, 4 μM ATP)
T4 construct: recombinantly generated catalytic kinase (also known as JH1) domain of human JAK1, JAK2, JAK3 and TYK2
T4 sequence (P52333 822-1111 limits assumed): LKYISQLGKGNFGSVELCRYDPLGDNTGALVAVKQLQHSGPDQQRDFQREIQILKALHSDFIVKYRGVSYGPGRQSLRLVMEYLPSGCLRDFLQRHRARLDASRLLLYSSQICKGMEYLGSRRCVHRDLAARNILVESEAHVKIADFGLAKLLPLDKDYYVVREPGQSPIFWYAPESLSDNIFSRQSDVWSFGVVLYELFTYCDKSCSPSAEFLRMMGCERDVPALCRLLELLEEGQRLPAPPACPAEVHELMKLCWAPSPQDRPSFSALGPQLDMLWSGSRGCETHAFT
Summary of the method: as §1

[5] = target: Tyk2 kinase activity on STAT4 in NK92 cells (Homo sapiens, UniProt P29597); experiment: pSTAT4 cell assay (MSD; NK92 cells, 30 ng/mL IL2 stimulation); assay type: cell-based; conditions: 30 ng/mL IL2, 15 minutes
Chain of Tyk2 kinase activity on STAT4 in NK92 cells (P29597 whole entry): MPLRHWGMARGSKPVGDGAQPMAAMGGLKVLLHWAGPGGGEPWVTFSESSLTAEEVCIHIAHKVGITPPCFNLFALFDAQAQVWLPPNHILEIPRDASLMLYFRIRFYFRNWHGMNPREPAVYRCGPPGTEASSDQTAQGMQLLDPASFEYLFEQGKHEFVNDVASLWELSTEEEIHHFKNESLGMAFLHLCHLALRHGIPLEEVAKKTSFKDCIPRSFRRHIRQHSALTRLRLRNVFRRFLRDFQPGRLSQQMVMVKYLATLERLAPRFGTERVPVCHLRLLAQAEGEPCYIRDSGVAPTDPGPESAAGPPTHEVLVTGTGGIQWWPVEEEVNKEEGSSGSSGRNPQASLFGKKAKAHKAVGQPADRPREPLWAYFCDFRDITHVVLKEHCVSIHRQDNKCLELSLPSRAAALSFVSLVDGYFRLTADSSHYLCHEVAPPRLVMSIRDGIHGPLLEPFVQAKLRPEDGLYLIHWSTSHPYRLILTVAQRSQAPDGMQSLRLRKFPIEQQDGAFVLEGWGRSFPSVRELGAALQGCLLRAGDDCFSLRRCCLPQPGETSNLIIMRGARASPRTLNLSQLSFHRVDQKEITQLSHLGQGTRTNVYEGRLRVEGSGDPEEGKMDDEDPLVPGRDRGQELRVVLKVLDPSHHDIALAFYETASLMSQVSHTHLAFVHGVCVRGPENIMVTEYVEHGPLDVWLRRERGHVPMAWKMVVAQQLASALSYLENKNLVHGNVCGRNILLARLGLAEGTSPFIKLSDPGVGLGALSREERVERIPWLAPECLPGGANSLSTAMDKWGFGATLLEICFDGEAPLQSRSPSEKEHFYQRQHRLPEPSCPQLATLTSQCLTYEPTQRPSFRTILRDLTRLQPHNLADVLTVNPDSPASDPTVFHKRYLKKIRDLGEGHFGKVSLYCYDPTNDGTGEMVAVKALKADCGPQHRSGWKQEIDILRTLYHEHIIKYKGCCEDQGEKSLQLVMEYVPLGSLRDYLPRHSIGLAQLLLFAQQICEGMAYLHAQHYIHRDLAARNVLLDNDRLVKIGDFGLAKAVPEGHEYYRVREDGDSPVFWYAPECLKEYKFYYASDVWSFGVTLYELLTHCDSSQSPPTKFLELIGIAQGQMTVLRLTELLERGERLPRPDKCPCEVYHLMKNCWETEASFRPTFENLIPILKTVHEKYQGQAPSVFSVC
Summary of the method: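 IC50 values come from 4-parameter logistic fits of normalized percent activity. Phospho-STAT was read by MSD (anti-STAT4 antibodies) in NK92 lysates after a 15 min stimulation with 30 ng/mL IL2. The serum-starved cells had been given compound for 1 h (10 points, four-fold, top 10 μM).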

[6] = target: JAK2 kinase activity on STAT5 in TF1 cells (Homo sapiens, UniProt O60674); experiment: pSTAT5 cell assay (MSD; TF1 cells, 30 ng/mL IL-3 stimulation); assay type: cell-based; conditions: 30 ng/mL IL-3, 15 minutes
Chain of JAK2 kinase activity on STAT5 in TF1 cells (O60674 whole entry): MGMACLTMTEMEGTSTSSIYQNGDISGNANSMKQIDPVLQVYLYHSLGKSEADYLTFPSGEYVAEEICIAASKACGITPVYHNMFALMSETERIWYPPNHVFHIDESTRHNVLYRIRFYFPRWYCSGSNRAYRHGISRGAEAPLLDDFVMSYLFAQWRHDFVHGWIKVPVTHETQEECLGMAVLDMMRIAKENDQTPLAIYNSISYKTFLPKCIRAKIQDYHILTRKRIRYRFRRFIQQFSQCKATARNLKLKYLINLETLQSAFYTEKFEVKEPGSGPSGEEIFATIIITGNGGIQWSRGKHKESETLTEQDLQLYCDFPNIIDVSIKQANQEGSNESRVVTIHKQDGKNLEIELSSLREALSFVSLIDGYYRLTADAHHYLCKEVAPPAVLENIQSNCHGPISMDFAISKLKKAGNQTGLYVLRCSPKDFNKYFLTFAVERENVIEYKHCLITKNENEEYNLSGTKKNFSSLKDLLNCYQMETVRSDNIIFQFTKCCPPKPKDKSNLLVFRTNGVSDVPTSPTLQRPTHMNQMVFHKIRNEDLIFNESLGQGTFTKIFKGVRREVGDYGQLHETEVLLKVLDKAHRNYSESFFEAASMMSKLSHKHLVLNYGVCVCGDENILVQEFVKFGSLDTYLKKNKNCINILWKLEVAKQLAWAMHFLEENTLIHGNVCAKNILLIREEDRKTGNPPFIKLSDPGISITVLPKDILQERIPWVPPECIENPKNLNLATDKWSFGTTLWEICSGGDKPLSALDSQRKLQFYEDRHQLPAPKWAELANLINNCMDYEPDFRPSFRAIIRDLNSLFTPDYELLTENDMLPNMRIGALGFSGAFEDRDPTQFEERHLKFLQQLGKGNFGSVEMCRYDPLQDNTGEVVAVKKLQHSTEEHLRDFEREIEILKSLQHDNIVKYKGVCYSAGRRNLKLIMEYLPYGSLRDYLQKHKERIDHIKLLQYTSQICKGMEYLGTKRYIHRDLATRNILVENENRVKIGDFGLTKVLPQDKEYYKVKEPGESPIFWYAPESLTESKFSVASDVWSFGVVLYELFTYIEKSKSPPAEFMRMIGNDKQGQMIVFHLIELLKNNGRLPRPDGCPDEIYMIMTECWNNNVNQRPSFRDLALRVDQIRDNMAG
Summary of the method: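 IC50 from a 4-parameter logistic fit of normalized pSTAT5 signal, measured by MSD in lysates of TF1 cells. Cells were serum-starved, exposed to compound for 1 h (top concentration 10 μM, four-fold, 10 points), then given IL-3 at 30 ng/mL for 15 min.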

[7] = target: JAK1 kinase activity on STAT3 in TF1 cells (Homo sapiens, UniProt P23458); experiment: pSTAT3 cell assay (MSD; TF1 cells, 30 ng/mL IL-6 stimulation); assay type: cell-based; conditions: 30 ng/mL IL-6, 15 minutes
Chain of JAK1 kinase activity on STAT3 in TF1 cells (P23458 whole entry): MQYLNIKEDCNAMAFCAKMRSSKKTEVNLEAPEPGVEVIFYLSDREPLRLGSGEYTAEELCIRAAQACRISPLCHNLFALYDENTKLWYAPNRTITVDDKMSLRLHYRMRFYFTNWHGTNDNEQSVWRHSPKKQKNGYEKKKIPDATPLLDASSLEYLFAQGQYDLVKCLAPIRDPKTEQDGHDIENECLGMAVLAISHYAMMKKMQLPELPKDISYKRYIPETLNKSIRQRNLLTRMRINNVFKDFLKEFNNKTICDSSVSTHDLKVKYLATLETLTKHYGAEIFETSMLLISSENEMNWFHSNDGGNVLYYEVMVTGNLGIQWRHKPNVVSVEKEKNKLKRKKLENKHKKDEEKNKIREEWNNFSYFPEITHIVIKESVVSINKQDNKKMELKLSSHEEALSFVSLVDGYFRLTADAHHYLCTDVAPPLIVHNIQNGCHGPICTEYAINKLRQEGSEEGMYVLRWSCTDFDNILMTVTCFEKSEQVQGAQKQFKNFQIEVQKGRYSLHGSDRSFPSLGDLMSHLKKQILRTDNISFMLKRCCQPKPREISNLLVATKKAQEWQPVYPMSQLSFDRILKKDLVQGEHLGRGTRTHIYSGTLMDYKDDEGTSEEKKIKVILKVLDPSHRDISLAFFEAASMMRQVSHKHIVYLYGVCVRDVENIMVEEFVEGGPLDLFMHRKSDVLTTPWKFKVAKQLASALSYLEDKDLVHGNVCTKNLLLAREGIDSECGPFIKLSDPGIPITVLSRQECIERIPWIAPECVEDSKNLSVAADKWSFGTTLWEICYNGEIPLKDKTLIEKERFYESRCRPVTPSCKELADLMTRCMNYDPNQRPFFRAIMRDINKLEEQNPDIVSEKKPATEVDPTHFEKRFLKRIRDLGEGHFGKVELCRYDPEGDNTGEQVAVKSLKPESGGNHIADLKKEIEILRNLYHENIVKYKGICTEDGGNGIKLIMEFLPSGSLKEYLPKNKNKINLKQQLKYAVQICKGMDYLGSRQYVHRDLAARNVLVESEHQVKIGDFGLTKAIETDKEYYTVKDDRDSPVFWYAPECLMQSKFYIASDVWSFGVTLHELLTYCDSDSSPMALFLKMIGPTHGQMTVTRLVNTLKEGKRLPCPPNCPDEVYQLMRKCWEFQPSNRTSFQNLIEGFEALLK
Summary of the method: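 IC50 values reflect 4-parameter logistic fits of normalized pSTAT3 signal, measured by MSD in lysed TF1 cells. Cells were serum-starved and treated with compound for 1 h (top concentration 10 μM) before a 15 min IL-6 challenge.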

Compound	IC50 ([1]; JH1 kinase domain, ADP-Glo)	IC50 ([2]; JH1 kinase domain, ADP-Glo)	IC50 ([3]; JH1 kinase domain, ADP-Glo)	IC50 ([4]; JH1 kinase domain, ADP-Glo)	IC50 [5]	IC50 [6]	IC50 [7]	IC50 ([1]; TYK2 JH1, ADP-Glo)	IC50 ([2]; JAK1 JH1, ADP-Glo)	IC50 ([3]; JAK2 JH1, ADP-Glo)	IC50 ([4]; JAK3 JH1, ADP-Glo)
C[C@@H]1CN(c2ccnn3cc(-c4cnn(-c5ccncc5)c4)cc23)C(=O)[C@]1(C#N)C1CC1 [Example 160, (3R,4S)-3-cyclopropyl-4-methyl-2-oxo-1-(6-(1-(pyridin-4-yl)-1H-pyrazol-4-yl)pyrrolo[1,2-b]pyridazin-4-yl)pyrrolidine-3-carbonitrile]	< 5 nM	100 to 1000 nM	100 to 1000 nM	100 to 1000 nM	50 to 100 nM	1000 to 5000 nM	1000 to 5000 nM				
C[C@@H]1CN(c2ccnn3cc(-c4cnc5cc(C#N)ccn45)cc23)C(=O)[C@]1(C#N)C1CC1 [Example 103, 3-(4-((3R,4S)-3-cyano-3-cyclopropyl-4-methyl-2-oxopyrrolidin-1-yl)pyrrolo[1,2-b]pyridazin-6-yl)imidazo[1,2-a]pyridine-7-carbonitrile trifluoroacetate]	5 to 20 nM	> 10000 nM	> 10000 nM	> 10000 nM	> 100 nM	> 10000 nM	> 10000 nM				
Cc1ncc(-c2cn3nccc3c(N3C[C@@H](C)[C@@](C#N)(C4CC4)C3=O)n2)s1 [Example 239, (3R,4S)-3-cyclopropyl-4-methyl-1-(6-(2-methylthiazol-5-yl)pyrazolo[1,5-a]pyrazin-4-yl)-2-oxopyrrolidine-3-carbonitrile]					50 to 100 nM	1000 to 5000 nM	100 to 1000 nM	< 5 nM	< 100 nM	100 to 1000 nM	< 100 nM
CO[C@H]1C[C@H](n2cc(-c3cn4ncc(F)c4c(N4C[C@@H](C)[C@@](C#N)(C5CC5)C4=O)n3)cn2)C1 [Example 299, (3R,4S)-3-cyclopropyl-1-(3-fluoro-6-(1-((1r,3R)-3-methoxycyclobutyl)-1H-pyrazol-4-yl)pyrazolo[1,5-a]pyrazin-4-yl)-4-methyl-2-oxopyrrolidine-3-carbonitrile]					50 to 100 nM	100 to 1000 nM	100 to 1000 nM	< 5 nM	< 100 nM	< 100 nM	< 100 nM
C[C@@H]1CN(c2nc(-c3cnn([C@H]4C[C@@H](C#N)C4)c3)cn3ncc(F)c23)C(=O)[C@]1(C#N)C1CC1 [Example 292, (3R,4S)-1-(6-(1-((1s,3S)-3-cyanocyclobutyl)-1H-pyrazol-4-yl)-3-fluoropyrazolo[1,5-a]pyrazin-4-yl)-3-cyclopropyl-4-methyl-2-oxopyrrolidine-3-carbonitrile]					20 to 50 nM	100 to 1000 nM	100 to 1000 nM	< 5 nM	< 100 nM	< 100 nM	< 100 nM
Cc1ccc(-c2cn3nccc3c(N3C[C@@H](C)[C@@](C#N)(C4CC4)C3=O)n2)cn1 [Example 233, (3R,4S)-3-cyclopropyl-4-methyl-1-(6-(6-methylpyridin-3-yl)pyrazolo[1,5-a]pyrazin-4-yl)-2-oxopyrrolidine-3-carbonitrile trifluoroacetate]					> 100 nM	1000 to 5000 nM	1000 to 5000 nM	< 5 nM	< 100 nM	100 to 1000 nM	< 100 nM
C[C@@H]1CN(c2nc(-c3cnn(C4CN(C)C4)c3)cc3ncsc23)C(=O)[C@]1(C#N)C1CC1 [Example 358, (3R,4S)-3-cyclopropyl-4-methyl-1-(6-(1-(1-methylazetidin-3-yl)-1H-pyrazol-4-yl)thiazolo[5,4-c]pyridin-4-yl)-2-oxopyrrolidine-3-carbonitrile]					50 to 100 nM	100 to 1000 nM	100 to 1000 nM	< 5 nM	< 100 nM	< 100 nM	< 100 nM
C[C@@H]1CN(c2ccnn3cc(-c4cnn([C@H]5C[C@@H](C#N)C5)c4)cc23)C(=O)[C@]1(C#N)C1CC1 [Example 329, (3R,4S)-1-(6-(1-((1s,3S)-3-cyanocyclobutyl)-1H-pyrazol-4-yl)pyrrolo[1,2-b]pyridazin-4-yl)-3-cyclopropyl-4-methyl-2-oxopyrrolidine-3-carbonitrile]					20 to 50 nM	100 to 1000 nM	100 to 1000 nM	< 5 nM	< 100 nM	< 100 nM	< 100 nM
C[C@@H]1CN(c2nc(-c3cnn(-c4cccnc4)c3)cn3nccc23)C(=O)[C@]1(C#N)C1CC1 [Example 294, (3R,4S)-3-cyclopropyl-4-methyl-2-oxo-1-(6-(1-(pyridin-3-yl)-1H-pyrazol-4-yl)pyrazolo[1,5-a]pyrazin-4-yl)pyrrolidine-3-carbonitrile]					20 to 50 nM	100 to 1000 nM	100 to 1000 nM	< 5 nM	< 100 nM	< 100 nM	< 100 nM
C[C@@H]1CN(c2nc(-c3cnn(C4CC4(F)F)c3)cn3nccc23)C(=O)[C@]1(C#N)C1CC1 (stereo partly drawn) [Example 198, (3R,4S)-3-cyclopropyl-1-(6-(1-(2,2-difluorocyclopropyl)-1H-pyrazol-4-yl)pyrazolo[1,5-a]pyrazin-4-yl)-4-methyl-2-oxopyrrolidine-3-carbonitrile]	< 5 nM	< 100 nM	< 100 nM	< 100 nM	50 to 100 nM	100 to 1000 nM	100 to 1000 nM				
Cn1cc(-c2cc3c(N4CC[C@@](C#N)(C5CC5)C4=O)ccnn3c2)cn1 [Example 9, (S)-3-cyclopropyl-1-(6-(1-methyl-1H-pyrazol-4-yl)pyrrolo[1,2-b]pyridazin-4-yl)-2-oxopyrrolidine-3-carbonitrile]	5 to 20 nM	100 to 1000 nM	100 to 1000 nM	100 to 1000 nM	> 100 nM	5000 to 10000 nM	1000 to 5000 nM				
C[C@@H]1CN(c2ccnn3cc(-c4nc5cnccc5s4)cc23)C(=O)[C@]1(C#N)C1CC1 [Example 102, (3R,4S)-3-cyclopropyl-4-methyl-2-oxo-1-(6-(thiazolo[4,5-c]pyridin-2-yl)pyrrolo[1,2-b]pyridazin-4-yl)pyrrolidine-3-carbonitrile trifluoroacetate]	5 to 20 nM	100 to 1000 nM	1000 to 5000 nM	100 to 1000 nM	> 100 nM	> 10000 nM	5000 to 10000 nM				
C[C@@H]1CN(c2nc(-c3cnn(C4CCCC4)c3)cn3ncc(F)c23)C(=O)[C@]1(C#N)C1CC1 [Example 217, (3R,4S)-1-(6-(1-cyclopentyl-1H-pyrazol-4-yl)-3-fluoropyrazolo[1,5-a]pyrazin-4-yl)-3-cyclopropyl-4-methyl-2-oxopyrrolidine-3-carbonitrile]	< 5 nM	< 100 nM	< 100 nM	< 100 nM	> 100 nM	1000 to 5000 nM	100 to 1000 nM				
C[C@@H]1CN(c2ccnn3cc(-c4ccc(N(C)C)cn4)cc23)C(=O)[C@]1(C#N)C1CC1 [Example 134, (3R,4S)-3-cyclopropyl-1-(6-(5-(dimethylamino)pyridin-2-yl)pyrrolo[1,2-b]pyridazin-4-yl)-4-methyl-2-oxopyrrolidine-3-carbonitrile trifluoroacetate]	5 to 20 nM	100 to 1000 nM	100 to 1000 nM	100 to 1000 nM	> 100 nM	5000 to 10000 nM	1000 to 5000 nM				
C[C@@H]1CN(c2ccnn3cc(-c4ccc5cncn5c4)cc23)C(=O)[C@]1(C#N)C1CC1 [Example 51, (3R,4S)-3-cyclopropyl-1-(6-(imidazo[1,5-a]pyridin-6-yl)pyrrolo[1,2-b]pyridazin-4-yl)-4-methyl-2-oxopyrrolidine-3-carbonitrile]	5 to 20 nM	< 100 nM	100 to 1000 nM	100 to 1000 nM	50 to 100 nM	> 10000 nM	1000 to 5000 nM				
C[C@@H]1CN(c2ncnc3[nH]c(-c4cnn(C)c4)cc23)C(=O)[C@]1(C#N)C1CC1 [Example 6, (3R,4S)-3-cyclopropyl-4-methyl-1-(6-(1-methyl-1H-pyrazol-4-yl)-7H-pyrrolo[2,3-d]pyrimidin-4-yl)-2-oxopyrrolidine-3-carbonitrile]	50 to 100 nM	1000 to 5000 nM	1000 to 5000 nM	1000 to 5000 nM	> 100 nM	> 10000 nM	> 10000 nM				
